# Experimental data reported in article PMC5387716, “Discovery of monocarbonyl curcumin-BTP hybrids as STAT3 inhibitors for drug-sensitive and drug-resistant breast cancer therapy” (Scientific Reports, 2017).
# What was measured:
# [1] = test system: implanted human breast tumors (MCF-7); test: MCF-7 xenograft in BALB/c nude mice; type: in vivo; details: 10 mg/kg ip daily for 21 days
# Method: The working solution was prepared in a Cremophor and DMSO mixture (10% Cremophor, 10% DMSO and 80% 1 × PBS) to give a 1 mg/ml solution. Athymic BALB/c nude mice (15–18 g) were injected with human breast tumor MCF-7 cells (3 × 10^6 cells in a volume of 0.2 ml) into the subcutaneous tissue of the right auxiliary region of the mice. Three days after the tumor cell inoculation, the mice were randomly sorted into three groups with six mice per group. The tumor-bearing mice were either given a daily 10 mg/kg ip injection of compound 6b or the vehicle. The treatment was initiated when the tumor burden of the mice reached approximately 50 mm^3. The tumor size was measured by caliper three times a week to document tumor growth and calculated by the formula: length × width × width/2, and the body weight was measured and recorded. Therapeutic efficacy was evaluated based on body weight loss, tumor growth inhibition [determined by using calipers and calculated by the formula: tumor inhibit rate (%) = (tumor volCon − tumor volTre)/tumor volCon] × 100. The body weight inhibitory ratio, BI (%) was calculated as BI (%) = (1 −MT/MC) × 100, where MT and MC were the average body weights of the treated and control groups, respectively. On the 22nd day, all mice were killed, and the tumors were segregated, weighed, and stored in −80 °C for later use. The levels of p-STAT3 in tumor tissues prepared from control or mice treated with 6b were analyzed by western blot assay. Apoptosis was evaluated via the TUNEL assay, and the Ki-67 assay was used to assess cancer cell proliferation.
# STAT3 = test: EMSA of STAT3 DNA-binding activity (hSIE probe); type: cell-based, human; details: nuclear extracts of MCF-7 cells, 24 h
# Method: MCF-7 cells were cultured overnight and then treated with compound 6b in fresh regular growth medium for 24 h. The cells were harvested and nuclear extract preparations and EMSA analysis were carried out as previously described. The ^32P-labeled oligonucleotide, hSIE probe, was used to bind STAT3.
# Bax gene = test: Quantitative real-time RT-PCR of Bax; type: cell-based, human; details: 24 h
# Method: Levels of mRNA expression were analyzed with the RT-PCR assay, with total RNA isolated from MCF-7 or MCF-7/DOX cells using an EASYspin Plus tissue/cell RNA extraction kit (Aidlab Biotechnologies Co. Ltd). RNA was quantified by measuring absorption at 260 nm and 1 μg of RNA was reverse transcribed to cDNA using the Transcriptor First Strand cDNA Synthesis Kit (Roche Diagnostics, Basel, Switzerland). Thermal cycling conditions included 95 °C initial denaturation for 5 min, followed by 40 cycles of denaturation (10 s at 95 °C), annealing (15 s at 60 °C) and extension (15 s at 72 °C with a single fluorescence measurement), a melt curve program (60–95 °C with a 0.11 °C/s heat increase and continuous fluorescence measurement) and a cooling step to 40 °C. The Δ cycle threshold method was used for the calculation of relative differences in mRNA abundance with a LightCycler 480 (Roche Molecular Biochemicals, Mannheim, Germany). The data were normalized to the expression of GAPDH. The results were expressed as fold-changes. The RT-PCR primers that were used in this study are listed in the supporting information.
# MCF-10A cells = test: MTT anti-proliferative assay, MCF-10A; type: cell-based, human; details: 48 h, normal breast epithelial cells, Table 2 prints no unit, μM
# Method: All cell lines were purchased from Cell Bank of Shanghai Institute of Biochemistry and Cell Biology, Chinese Academy of Sciences (Shanghai, China). Human breast carcinoma cells (MCF-7 and MCF-7/DOX), breast epithelial cells (MCF-10A) and normal human liver cells (LO2) were maintained in RPMI-1640 medium. All cells were supplemented with 12% fetal bovine serum containing 50 μg/ml penicillin and 50 μg/ml streptomycin. Cells were grown to 80% confluency in a tissue culture flask at 37 °C in a humidified atmosphere containing 5% CO2, and then were trypsinized with 1 × Trypsin-Versene and split. The MCF-7/DOX cell line we used was established from its parental cell line MCF-7 cell by gradually increasing the concentration of DOX to which the cells were exposed in a stepwise manner over a period of 8 months. […] The cells were incubated in drug-free medium for at least 1 week before use.
# Cells (MCF-7, MCF-7/DOX, MCF-10A, LO2) were seeded in 96-well plates at a density of 3,000–6,000 cells per well. The cells were incubated overnight (16 h) in a humidified 5% CO2 incubator at 37 °C. After media removal, different concentrations of test compounds were added in triplicate to the plates in 200 μL of fresh media and were incubated with the cells at 37 °C for 48 h. […] Cell viability was evaluated using 3-(4, 5-dimethylthiazolyl)-2,5-diphenyltetrazoliumbromide (MTT). The absorbance was read by an ELISA reader (SpectraMax Plus384, Molecular Devices, Sunnyvale, CA) at a test wavelength of 570 nm and a reference wavelength of 630 nm. Cell viability was calculated using the following formula: […]
# MCF-7/DOX cells = test: Annexin V-APC/7-AAD flow cytometry of apoptosis, MCF-7/DOX; type: cell-based, human; details: 24 h
# Method: MCF-7, MCF-7/DOX or MCF-10A cells, at a density of 2.5 × 10^5 cells per well, were cultured in regular growth medium in 6-well plates for 24 h and treated in duplicate with different concentrations of 6b or curcumin for 24 h. The cells were harvested, washed and stained with 5 μL of Annexin V-APC and 5 μL of 7-AAD at room temperature for 15 min. Cells were then analyzed by flow cytometry (488 nm excitation and 600 nm emission filters) using a BD FACSCalibur flow cytometer (Becton & Dickinson Company, Franklin Lakes, NJ).
smiles,measurement,setting,value
"COc1ccc(/C=C/C(=O)N2CCN(C(=O)C3=Cc4cc(Br)ccc4S3(=O)=O)CC2)cc1 [Compound 6b, (E)-1-(4-(5-bromo-1,1-dioxidobenzo[b]thiophene-2-carbonyl)piperazin-1-yl)-3-(4-methoxyphenyl)prop-2-en-1-one]",Ki-67 immunohistochemical staining in tumor tissues,[1],suppressed tumor cell proliferation
same,TUNEL assay of tumor cells,[1],induced tumor cell apoptosis
same,changes in the body weights of the mice,[1],no significant changes
same,reduction of the weight of the tumor tissues compared with the control,[1],68.2%
same,p-STAT3 in lysates from the tumor tissues (immunoblotting),[1]; vs control tumors,suppression of p-STAT3
same,volumes of the implanted human breast tumors,[1]; vs vehicle,significantly reduced
same,STAT3 DNA-binding activity,STAT3,strongly inhibited STAT3 DNA-binding activity in a dose-dependent manner
same,Bax gene expression increase,"Bax gene; MCF-7/DOX cells, 1.0 μM",14.0%
same,Bax gene expression increase,"Bax gene; MCF-7/DOX cells, 2.0 μM",76.5%
same,Bax gene expression increase,"Bax gene; MCF-7/DOX cells, 4.0 μM",125.0%
same,Bax gene level (in words),Bax gene; MCF-7 and MCF-7/DOX cells,upregulated
same,Bax gene expression increase,"Bax gene; MCF-7 cells, 1.0 μM",15.0%
same,Bax gene expression increase,"Bax gene; MCF-7 cells, 2.0 μM",71.5%
same,Bax gene expression increase,"Bax gene; MCF-7 cells, 4.0 μM",97.5%
same,IC50,MCF-10A cells,7.72 ± 0.56 µM
same,IC50,"MCF-10A cells; Homo sapiens, MCF-10A",7.7 µM
same,apoptosis rate,MCF-7/DOX cells; 1 μM,18.5%
same,apoptosis rate,MCF-7/DOX cells; 2 μM,50.1%
same,apoptosis rate,MCF-7/DOX cells; 4 μM,66.4%
